Experimental data reported in US9901592B2 (priority 2008, dated 2018).
Converted amounts (≈) assume the structure as drawn. “And” between values parts separate entries of the source, which are not always exact repeats. Identical values can stand only once. Like-named read-outs stand apart in the source and are kept apart here.

What was measured:
S. pneumoniae [1] = format: cell-based; details: for Mutant selection frequencies: S. pneumoniae
S. pyogenes = format: cell-based
S. aureus = assay: mouse systemic infection model (PD50); format: in vivo
S. pneumoniae [2] = assay: mouse subcutaneous abscess model; format: in vivo; details: S. pneumoniae 1629, 10 mg/Kg PO
Procedure: Example. Efficacy was evaluated in several infection models. […] PD50s were determined 24 hr post infection. CEM-101 was further evaluated in a subcutaneous abscess mouse model against S. pneumoniae. CD-1 female mice were infected via SC injection of bacteria mixed with cyclodextran beads. Two hr post infection, mice received a single oral dose of CEM 101 or control agents. At 48 hr post dose, mice were euthanized, abscesses aseptically removed and bacteria enumerated. CFU per abscess was determined and compared to the untreated control. […] 24 hr post treatment, the thighs were processed and CFU/gram of thigh determined.
Example. Mouse Subcutaneous Abscess. Bacteria were prepared from an overnight plate culture by re-suspending in saline and adjusting the suspension to a 0.1 OD at 625 nm of a 1:10 dilution. The adjusted bacterial suspension was mixed 1:2 with cyclodextran beads prepared as per package instructions. The right flanks of the mice were shaven and injected subcutaneously with 0.2 ml of the bacterial inoculum. Two hours post infection mice were treated via oral gavage with either test article or control drug. 48 hours post infection, mice were euthanized, abscesses aseptically removed, homogenized, serially diluted and plated on bacterial growth agar. After overnight incubation, colonies were counted and CFUs/gram of abscess were determined.
Example. The ability of CEM101 to reduce the microbial load in abscess infection model was also assessed against S. pneumoniae isolates.

S. pneumoniae [3] = assay: neutropenic mouse thigh infection; format: in vivo; details: PO
Procedure: Example. Neutropenic Mouse Thigh Infection. Mice were rendered neutropenic with IP injections of cyclophosamide at day −4 and day −1 of 150 mg/Kg and 100 mg/Kg, respectively. On day 0 mice were infected with approximately 5×10^5 CFU/ml of bacteria in a 0.1 ml volume into the right thigh. At 1.5 hours post infection mice received treatment via oral gavage. One group of infected mice were euthanized and thigh processed for bacterial titers to serve as T=0 controls. Twenty-four hours post treatment, the remaining mice were euthanized, thighs aseptically removed, weighed, homogenized, serially diluted and plated on bacterial growth media. CFUs per gram of thigh were calculated after overnight incubation of bacterial plates. The amount of test article required to achieve 1, 2, and 3 loge reductions from 24 hour control thighs were calculated. Additional studies were performed that fractionated the single treatment dose (Q24) into two (Q12), three (Q8) and four (Q6) equivalent doses to determine the pharmacodynamic nature of this compound. Further analysis includes static dose, EC50, 1 log kill and maximal effect (Emax).

M. catarrhalis = assay: microbe, parasite or virus in culture; format: cell-based; details: Moraxella catarrhalis
pneumococci = assay: microbe, parasite or virus in culture; format: cell-based, S. pneumoniae
[4] = Streptococcus pneumoniae, pneumococci, L4 mutations (27)

## CC[C@H]1OC(=O)[C@H](C)C(=O)[C@H](C)[C@@H](O[C@@H]2O[C@H](C)C[C@H](N(C)C)[C@H]2O)[C@](C)(OC)C[C@@H](C)C(=O)[C@H](C)[C@H]2N(CCCCn3cnc(-c4cccnc4)c3)C(=O)O[C@]12C [TEL, telithromycin]
S. pneumoniae [1]; at 2×MIC
  Mutant selection frequencies: 1.1×10^−9-1.3×10^−4
S. pneumoniae [1]; at 8×MIC
  Mutant selection frequencies: <1.5×10^−10-4.8×10^−6
S. pneumoniae [1]; strain 24 Macrolide-R [erm(B)], 2 × MIC
  single step mutation frequency: 1.3 × 10^−4
S. pneumoniae [1]; strain 24 Macrolide-R [erm(B)], 4 × MIC
  single step mutation frequency: 2.5 × 10^−6
S. pneumoniae [1]; strain 24 Macrolide-R [erm(B)], 8 × MIC
  single step mutation frequency: 1.7 × 10^−6
S. pneumoniae [1]; strain 1076 Macrolide-R [erm(B)&mef(A)], 2 × MIC
  single step mutation frequency: 6.5 × 10^−6
S. pneumoniae [1]; strain 1076 Macrolide-R [erm(B)&mef(A)], 4 × MIC
  single step mutation frequency: 9.7 × 10^−6
S. pneumoniae [1]; strain 1076 Macrolide-R [erm(B)&mef(A)], 8 × MIC
  single step mutation frequency: 4.8 × 10^−6
S. pneumoniae [1]; strain 1077 Macrolide-S, 2 × MIC
  single step mutation frequency: 1.1 × 10^−9
S. pneumoniae [1]; strain 1077 Macrolide-S, 4 × MIC
  single step mutation frequency: <5.5 × 10^−10
S. pneumoniae [1]; strain 1077 Macrolide-S, 8 × MIC
  single step mutation frequency: <5.5 × 10^−10
S. pneumoniae [1]; strain 1635 Macrolide-R [erm(A)], 2 × MIC
  single step mutation frequency: <2.7 × 10^−9
S. pneumoniae [1]; strain 1635 Macrolide-R [erm(A)], 4 × MIC
  single step mutation frequency: <2.7 × 10^−9
S. pneumoniae [1]; strain 1635 Macrolide-R [erm(A)], 8 × MIC
  single step mutation frequency: <2.7 × 10^−9
S. pneumoniae [1]; strain 2686 Macrolide-R [L4 mutation], 2 × MIC
  single step mutation frequency: 2.2 × 10^−5
S. pneumoniae [1]; strain 2686 Macrolide-R [L4 mutation], 4 × MIC
  single step mutation frequency: 2.2 × 10^−9
S. pneumoniae [1]; strain 2686 Macrolide-R [L4 mutation], 8 × MIC
  single step mutation frequency: <1.1 × 10^−9
S. pneumoniae [1]; strain 3009 Macrolide-R [23S rRNA mutation], 2 × MIC
  single step mutation frequency: 3.8 × 10^−7
S. pneumoniae [1]; strain 3009 Macrolide-R [23S rRNA mutation], 4 × MIC
  single step mutation frequency: <1.5 × 10^−10
S. pneumoniae [1]; strain 3009 Macrolide-R [23S rRNA mutation], 8 × MIC
  single step mutation frequency: <1.5 × 10^−10
S. pneumoniae [1]; strain 3665 Macrolide-R [mef(A)], 2 × MIC
  single step mutation frequency: 7.5 × 10^−9
S. pneumoniae [1]; strain 3665 Macrolide-R [mef(A)], 4 × MIC
  single step mutation frequency: 2.5 × 10^−9
S. pneumoniae [1]; strain 3665 Macrolide-R [mef(A)], 8 × MIC
  single step mutation frequency: <2.5 × 10^−10
S. pneumoniae [1]; strain 7127 Macrolide-S [S20N in L4, A105V in L22], 2 × MIC
  single step mutation frequency: <5.0 × 10^−9
S. pneumoniae [1]; strain 7127 Macrolide-S [S20N in L4, A105V in L22], 4 × MIC
  single step mutation frequency: <5.0 × 10^−9
S. pneumoniae [1]; strain 7127 Macrolide-S [S20N in L4, A105V in L22], 8 × MIC
  single step mutation frequency: <5.0 × 10^−9
S. pyogenes; S. pyogenes, at 2×MIC
  Mutant selection frequencies: <8.3×10^−11-7.7×10^−8
S. pyogenes; strain 237 Macrolide-R [L4 mutation], 2 × MIC
  single step mutation frequency: <2.0 × 10^−10
S. pyogenes; strain 237 Macrolide-R [L4 mutation], 4 × MIC
  single step mutation frequency: <2.0 × 10^−10
S. pyogenes; strain 237 Macrolide-R [L4 mutation], 8 × MIC
  single step mutation frequency: <2.0 × 10^−10
S. pyogenes; strain 2011 Macrolide-R [mef(A)], 2 × MIC
  single step mutation frequency: 3.8 × 10^−8
S. pyogenes; strain 2011 Macrolide-R [mef(A)], 4 × MIC
  single step mutation frequency: <6.3 × 10^−10
S. pyogenes; strain 2011 Macrolide-R [mef(A)], 8 × MIC
  single step mutation frequency: <6.3 × 10^−10
S. pyogenes; strain 2094 Macrolide-R [erm(A)], 2 × MIC
  single step mutation frequency: 7.7 × 10^−8
S. pyogenes; strain 2094 Macrolide-R [erm(A)], 4 × MIC
  single step mutation frequency: <1.5 × 10^−10
S. pyogenes; strain 2094 Macrolide-R [erm(A)], 8 × MIC
  single step mutation frequency: <1.5 × 10^−10
S. pyogenes; strain 2132 Macrolide-S, 2 × MIC
  single step mutation frequency: <8.3 × 10^−11
S. pyogenes; strain 2132 Macrolide-S, 4 × MIC
  single step mutation frequency: <8.3 × 10^−11
S. pyogenes; strain 2132 Macrolide-S, 8 × MIC
  single step mutation frequency: <8.3 × 10^−11
S. aureus; MRSA 300 (CA)
  PD50: 9.2 mg/kg
S. aureus; S. aureus, single oral dose 1 hr post infection
  PD50: >30 mg/kg
S. pneumoniae [2]; 24 hours
  average log10 CFU/gram of abscess: about 3 log10 CFU/gram
S. pneumoniae [2]; 48 hours
  average log10 CFU/gram of abscess: about 4.5 log10 CFU/gram
S. pneumoniae [3]; S. pneumoniae 1629
  Max. change in log10CFUs from 24 hr. controls: −6.82 log10CFUs
S. pneumoniae [3]; S. pneumoniae 1629, QD
  Dose for 2 log10 Reduction from 24 hour controls: 13.2 mg/Kg
S. pneumoniae [3]; S. pneumoniae 6303
  Max. change in log10CFUs from 24 hr. controls: −5.27 log10CFUs
M. catarrhalis
  MIC50: 0.12 µg/mL (≈ 0.148 µM)
  MIC90: 0.25 µg/mL (≈ 0.308 µM)
pneumococci
  MIC Range: 0.03 to 2 µg/mL
  MIC range: 0.015 to 1 µg/mL and 0.03 to 2 µg/mL and 0.03 to 0.5 µg/mL and 0.03 to 0.06 µg/mL
pneumococci; [4]
  MIC50: 0.125 µg/mL (≈ 0.154 µM)
  MIC90: 0.25 µg/mL (≈ 0.308 µM)
pneumococci; Streptococcus pneumoniae, read-out: MIC range
  MIC: 0.015 to 0.03 µg/mL (≈ 0.0185 to 0.0369 µM)
pneumococci; Streptococcus pneumoniae, read-out: MIC range, pneumococci, L4 mutations (27)
  MIC: 0.06 to 0.25 µg/mL (≈ 0.0739 to 0.308 µM)
